{"source": "patent US6413967B1", "about": "“Inhibition of novel calcium entry pathway in electrically non-excitable cells acting as an anti-proliferative therapy” (The University of Virginia Patents Foundation, priority 1995, dated 2002)", "assay_type_in_all_cases": "cell-based, human", "key": {"[1]": {"tested_on": "Ca^2+ entry pathway in Jurkat cells", "assay": "thapsigargin-stimulated Ca2+ entry measured with Ca2+-sensitive dyes (indo-1, fluo-3)", "method": "Lymphocytes were suspended in culture medium at 37° C. for 1 h in the presence of 1 μM of the Ca^2+ indicator dye indo-1 /AM. Cells were washed twice in buffer A (140 mM NaCl, 3 mM KCl, 1 mM CaCl2, 1 mM MgCl2, 0.1% D-glucose, 1% FBS, 10 mM HEPES, pH 7.4) and were suspended at a final concentration of 1×10^6 cells/ml in buffer A. The excitation wavelength was 340 nm and emission was monitored at 398 nm in an SLM 8000 spectrofluorometer (SLM/Aminco, Urbana, Ill.), with the temperature maintained at 37° C. Data are plotted as relative fluorescence intensity at 398 nm as a measure of [Ca^2+]i. For FIG. 7, indo-1 emission was monitored at 398 nm and 480 nm and [Ca^2+]i was determined as described previously (Gray et al, J. Immunol (1987) 138:63; Haverstick et al, Mol. Biol. Cell (1993) 4:173).\nJurkat cells were loaded with indo-1/AM as described above. The excitation wavelength was 340 nm and emission was measured at 441 nm. The fluorescence of indo-1 at 441 nm is insensitive to changes in [Ca^2+]i (Sage et al, Biochem. J. (1989) 258:923) and is plotted as relative fluorescence intensity.\nBecause amiloride interferes with the fluorescence of indo-1 (Wacholtz et al, J. Immunol. (1992) 149:1912), fluo-3 was used to monitor [Ca^2+]i in the presence of amiloride. Jurkat cells were suspended in culture medium at 37° C. for 1 h in the presence of 1 μM fluo-3/AM and 1 mM probenecid to decrease dye leakage (DiVirgilio et al, Methods Cell Biol. (1989) 31:453). After two washes in buffer A, cells were suspended at a concentration of 1×10^6 cells/ml in buffer A with 1 mM probenecid and were maintained in a cuvette at 37° C. The excitation wavelength was 506 nm and the emission was monitored at 526 nm. Data are presented sa relative fluorescence intensity at 526 nm."}, "[2]": {"tested_on": "[Ca^2+]i in MDA-468 cells", "assay": "EGF receptor-stimulated Ca2+ influx in MDA-468 cells", "settings": "effect the same post- and pre- EGF receptor stimulation", "method": "MDA468 cells are incubated with either indo-1 or the combination of fura-red/fluo-3 for 1 hour while still adherent in the maintenance flask in DMEM plus 5% fbs and 1 μg/ml insulin. Cells are removed by gentle scraping and washed three times in buffer A containing 1% charcoal stripped fbs (Nelson et al, Br. J. Cancer (1991) 63:933). The cells are then suspended to a final concentration of 1e6/ml and used as above in the SLM. For the human breast cancer cells, Ca^2+ entry is stimulated by the addition of 25 ng/ml EGF, rather than the antibody used above."}, "[3]": {"tested_on": "NVG current in Jurkat cells", "assay": "perforated patch clamp, non-voltage gated (NVG) current", "settings": "membrane potential −60 mV, 300 nM thapsigargin, amiloride 100 μM, MnCl2 300 μM, NiCl2 1 mM, W-7 30 μM, NDGA 10 μM", "method": "All recordings were performed using the perforated patch method (Horn et al, J. Gen. Physiol. (1988) 92:145) of the gigaseal patch clamp technique (Hammil et al, Pflugers Arch (1981) 391:85) with microelectrodes of 5-10 megohm series resistance. In all solutions for voltage clamp, K^+ was replaced with Cs^+ to block outward K^+ currents (Fox et al, J. Physiol. (Lond.) (1987) 392:149). The bath solution contained (in mM): NaCl, 155; CsCl, 4.5; CaCl2, 2; MgCl2, 1; D-glucose, 5; HEPES, 10 (pH 7.4 with NaOH). The pipette solution contained (in mM): CsCl, 55; Cesium methanesulfonate, 70; CaCl2, 1; MgCl2, 7; HEPES, 10 (pH 7.3 with NaOH). Nystatin was made as a stock solution of 6 mg/100 μl DMSO, and 2 μl of the stock was added to 1 ml of the pipette solution for use. Both pipette and bath solutions were 290-300 mOsm. Experiments were performed on cells at room temperature using the Axopatch-1D patch clamp (Axon Instruments, Foster City, Calif.) after correction of junction potentials and leak subtraction. Records were low-pass filtered at 500 Hz, and the data were collected, stored and analyzed using the pClamp software program (Axon Instruments). For the non-voltage gated current traces, data is presented either as the tracing from a chart recorder or from the digital data in which the current was measured at 5 second intervals and plotted as individual points."}, "[4]": {"tested_on": "[Ca^2+]i in Jurkat T cells", "assay": "receptor-stimulated Ca2+ influx in Jurkat T cells (anti-CD3 mAb OKT3)", "settings": "effect the same post- and pre- T cell receptor stimulation; 10 or 30 μM drug", "method": "Initially, all drugs are screened using Jurkat T cells incubated with indo-1/AM as outlined below. In the event that there is an effect of the drug on the maximum [Ca^2+]i reached following treatment of the cells with the anti-CD3 mAb […], the drug is evaluated for any effects on the spectral characteristics of indo-1 as outlined in Haverstick and Gray, Mol. Biol. Cell (1993) 4:173. If there is an effect of the drug on the spectral characteristics of indo-1 , the drug is further examined for spectral effects on the combination of fura-red and fluo-3. If there is no effect of the drug on the fura-red/fluo-3 combination, the drug is examined for effects on the maximum [Ca^2+]i reached following OKT3 treatment of cells incubated with 5 μM fura-red and […] as outlined below.\nJurkat cells are incubated in RPMI-1640 plus 5% fbs in the presence of the acetoxymethyl ester of either indo-1 (1 μM) or the combination of fura-red (5 μM) with fluo-3 (1 μM) for one hour at 37° C. Cells are washed three times in buffer A [[…] 4-(2-hydroxyethyl)-1-piperazine ethanesulfonic acid (HEPES), pH 7.4, 3 MM KCl, 1 mM MgCl2, 1 mM CaCl2, 140 mM NaCl, 0.1% glucose] containing 1% fbs and suspended to a final concentration of 1×10^6/ml. Cells are then placed in the 37° C. jacketed cell holder of the SLM 8000C. Antigen receptor engagement is mimicked by the addition of the anti-CD3 monoclonal antibody OKT3 (Gray et al, J. Exp. Med. (1988) 167:1963; Gray et al, J. Immunol. 142:1631). The effect of drug added prior to receptor stimulation or at the plateau phase of Ca^2+ entry is determined as follows:\nPrior drug: 10 or 30 μM drug @ 30 seconds, 1 μg/ml OKT3 at 90 seconds\nPost drug: 1 μg/ml OKT3 at 30 second, 10 or 30 μM drug @ 120 seconds"}}}
{"smiles": "CC(Cc1ccc(O)c(O)c1)C(C)Cc1ccc(O)c(O)c1", "note": "(centres unmarked) [NDGA, 4,4′-(2,3-dimethyl-1,4-butanediyl)bis[1,2-benzenediol]]", "values": [{"measurement": "effect on thapsigargin-stimulated Ca^2+ entry", "setting": "[1]; 300 nM thapsigargin, amiloride 100 μM (fluo-3), Ni^2+ 1 mM, NDGA 10 μM (indo-1)", "value": "inhibited Ca^2+ entry"}, {"measurement": "IC50", "setting": "[1]; Homo sapiens, indo-1, n=10, read-out: IC50 for blockade of thapsigargin-stimulated Ca^2+ entry", "value": 5, "unit": "µM"}, {"measurement": "MDA [CA^2+]i", "setting": "[2]", "value": "↓"}, {"measurement": "effect on the thapsigargin-induced NVG current", "setting": "[3]", "value": "no effect"}, {"measurement": "T cell [Ca^2+]i", "setting": "[4]", "value": "↓"}]}
